Laboratory results as given in patent publication US7763728B2, “Tetrahydropyridothiophenes” (4SC AG, priority 2005, dated 2010).
pIC50: −log10 of the molar value.

Columns and labels:
[1] = test system: RKO colon adenocarcinoma cells (RKOp27) arrested by the expression of ectopic p27Kip1; assay: Alamar Blue cell viability assay on RKOp27 cells arrested by p27Kip1 expression induced by Ponasterone A; assay type: cell-based; conditions: Homo sapiens, 72 hours incubation, 10 μM Ponasterone A, read-out: IC50 RKO p27 induced (arrested)
Summary of the method: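 RKOp27 cells, 15000/well, held in DMEM with 10% FCS and with or without 10 μM Ponasterone A to induce p27Kip1 arrest. Compound dilutions added 24 h after seeding, then 72 h at 37 °C in quadruplicate. Alamar Blue fluorescence (544/590 nm) gave % viability relative to untreated cells.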

[2] = test system: RKO (RKOp27) human colon adenocarcinoma cells; assay: Alamar Blue cell viability assay, anti-proliferative/cytotoxic activity on proliferating (uninduced) RKOp27 cells; assay type: cell-based; conditions: 72 hours incubation, absence of the inducer Ponasterone A, read-out: IC50 RKO p27 uninduced (proliferating)
Summary of the method: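 RKOp27 subclones seeded at 5000 cells/well, compounds added after 24 h in DMEM/10% FCS, quadruplicates, 72 h at 37 °C, 5% CO2. Alamar Blue fluorescence (ex 544/em 590 nm) normalised to untreated cells (1% DMSO medium) as 100%; IC50 from concentration-effect curves.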

| pIC50 [1] | SMILES | pIC50 [2] |
| --- | --- | --- |
| ≤ 5.00 | CCOc1ccccc1CCC(=O)Nc1sc2c(c1C#N)CCN(C(=O)CCn1cc(C)nc1C)C2 [Example 162, N-{3-Cyano-6-[3-(2,4-dimethyl-imidazol-1-yl)-propanoyl]-4,5,6,7-tetrahydro-thieno[2,3-c]pyridin-2-yl}-3-(2-ethoxy-phenyl)-propionamide] | 5.70 to 6.52 |
| ≤ 5.00 | CCOc1ccccc1C(C)CC(=O)Nc1sc2c(c1C#N)CCN(C(=O)Cn1cnc(C)c1)C2 (racemic) [Example 136, (RS)—N-{3-Cyano-6-[2-(4-methyl-imidazol-1-yl)-ethanoyl]-4,5,6,7-tetrahydro-thieno[2,3-c]pyridin-2-yl}-3-(2-ethoxy-phenyl)-butyramide] | 5.70 to 6.52 |
| < 4.00 | COCC(=O)N1CCc2c(sc(NC(=O)CCc3cc(C)ccc3OC)c2C#N)C1 [Example 33, N-[3-Cyano-6-(2-methoxy-ethanoyl)-4,5,6,7-tetrahydro-thieno[2,3-c]pyridin-2-yl]-3-(2-methoxy-5-methyl-phenyl)-propionamide] | 5.70 to 6.52 |
| ≤ 5.00 | COc1ccccc1C(C)CC(=O)Nc1sc2c(c1C#N)CCN(C(=O)CCn1cnc(C)c1)C2 (racemic) [Example 152, (RS)—N-{3-Cyano-6-[3-(4-methyl-imidazol-1-yl)-propanoyl]-4,5,6,7-tetrahydro-thieno[2,3-c]pyridin-2-yl}-3-(2-methoxy-phenyl)-butyramide] | 5.70 to 6.52 |
| ≤ 4.40 | COCCOCC(=O)N1CCc2c(sc(NC(=O)CCc3ccccc3OC)c2C#N)C1 [Example 6, N-{3-Cyano-6-[2-(2-methoxy-ethoxy)-ethanoyl]-4,5,6,7-tetrahydro-thieno[2,3-c]pyridin-2-yl}-3-(2-methoxy-phenyl)-propionamide] | 5.70 to 6.52 |
| ≤ 5.00 | COc1ccc(C)cc1CCC(=O)Nc1sc2c(c1C#N)CCN(C(=O)CCn1cnc(C)c1)C2 [Example 157, N-{3-Cyano-6-[3-(4-methyl-imidazol-1-yl)-propanoyl]-4,5,6,7-tetrahydro-thieno[2,3-c]pyridin-2-yl}-3-(2-methoxy-5-methyl-phenyl)-propionamide] | 5.70 to 6.52 |
| ≤ 4.40 | COc1cccc(CCC(=O)Nc2sc3c(c2C#N)CCN(C(=O)CCc2nccn2C)C3)c1 [Example 115, N-{3-Cyano-6-[3-(1-methyl-1H-imidazol-2-yl)-propanoyl]-4,5,6,7-tetrahydro-thieno[2,3-c]pyridin-2-yl}-3-(3-methoxy-phenyl)-propionamide] | 5.70 to 6.52 |
| ≤ 4.40 | CCOc1ccccc1CCC(=O)Nc1sc2c(c1C#N)CCN(C(=O)Cn1ccnc1C)C2 [Example 131, N-{3-Cyano-6-[2-(2-methyl-imidazol-1-yl)-ethanoyl]-4,5,6,7-tetrahydro-thieno[2,3-c]pyridin-2-yl}-3-(2-ethoxy-phenyl)-propionamide] | ≥ 6.52 |
| < 4.00 | COCC(=O)N1CCc2c(sc(NC(=O)CCc3cccc(OC)c3)c2C#N)C1 [Example 18, N-[3-Cyano-6-(2-methoxy-ethanoyl)-4,5,6,7-tetrahydro-thieno[2,3-c]pyridin-2-yl]-3-(3-methoxy-phenyl)-propionamide] | 5.70 to 6.52 |
| ≤ 4.40 | COc1ccccc1CCC(=O)Nc1sc2c(c1C#N)CCN(C(=O)CC(C)n1ccnc1)C2 (racemic) [Example 56, N-[3-Cyano-6-((RS)-3-imidazol-1-yl-butanoyl)-4,5,6,7-tetrahydro-thieno[2,3-c]pyridin-2-yl]-3-(2-methoxy-phenyl)-propionamide] | 5.70 to 6.52 |
| ≤ 4.40 | COc1ccc(C)cc1CCC(=O)Nc1sc2c(c1C#N)CCN(C(=O)Cn1ccnc1)C2 [Example 86, N-[3-Cyano-6-(2-imidazol-1-yl-ethanoyl)-4,5,6,7-tetrahydro-thieno[2,3-c]pyridin-2-yl]-3-(2-methoxy-5-methyl-phenyl)-propionamide] | 5.70 to 6.52 |
| < 4.00 | COc1ccccc1CCC(=O)Nc1sc2c(c1C#N)CCN(C(=O)CCc1ccccn1)C2 [Example 95, N-[3-Cyano-6-(3-pyridin-2-yl-propanoyl)-4,5,6,7-tetrahydro-thieno[2,3-c]pyridin-2-yl]-3-(2-methoxy-phenyl)-propionamide] | ≥ 6.52 |
| < 4.00 | COc1cccc(C(C)CC(=O)Nc2sc3c(c2C#N)CCN(C(=O)Cc2ccccn2)C3)c1 (stereo not drawn) [Example 58, N-[3-Cyano-6-(2-pyridin-2-yl-ethanoyl)-4,5,6,7-tetrahydro-thieno[2,3-c]pyridin-2-yl]-3-(3-methoxy-phenyl)-butyramide] | 5.70 to 6.52 |
| < 4.00 | CCOc1ccccc1CCC(=O)Nc1sc2c(c1C#N)CCN(C(=O)COC(C)=O)C2 [Example 10, Acetic acid 2-{3-cyano-2-[3-(2-ethoxy-phenyl)-propanoylamino]-4,7-dihydro-5H-thieno[2,3-c]pyridin-6-yl}-2-oxo-ethyl ester] | ≥ 6.52 |
| ≤ 4.40 | COc1ccccc1CCC(=O)Nc1sc2c(c1C#N)CCN(C(=O)Cc1ccccn1)C2 [Example 59, N-[3-Cyano-6-(2-pyridin-2-yl-ethanoyl)-4,5,6,7-tetrahydro-thieno[2,3-c]pyridin-2-yl]-3-(2-methoxy-phenyl)-propionamide] | ≥ 6.52 |
| < 4.00 | CCOc1ccccc1C(C)CC(=O)Nc1sc2c(c1C#N)CCN(C(=O)Cc1ccncc1)C2 (racemic) [Example 71, (RS)—N-[3-Cyano-6-(2-pyridin-4-yl-ethanoyl)-4,5,6,7-tetrahydro-thieno[2,3-c]pyridin-2-yl]-3-(2-ethoxy-phenyl)-butyramide] | ≥ 6.52 |
| ≤ 4.40 | CCOc1ccccc1C(C)CC(=O)Nc1sc2c(c1C#N)CCN(C(=O)CCn1ccnc1)C2 (racemic) [Example 100, (RS)—N-[3-Cyano-6-(3-imidazol-1-yl-propanoyl)-4,5,6,7-tetrahydro-thieno[2,3-c]pyridin-2-yl]-3-(2-ethoxy-phenyl)-butyramide] | 5.70 to 6.52 |
| < 4.00 | CCCC(=O)N1CCc2c(sc(NC(=O)CC(C)c3cccc(OC)c3)c2C#N)C1 (racemic) [Example 87, (RS)—N-(6-Butyryl-3-cyano-4,5,6,7-tetrahydro-thieno[2,3-c]pyridin-2-yl)-3-(3-methoxy-phenyl)-butyramide] | 5.70 to 6.52 |
| ≤ 5.00 | CCOc1ccccc1C(C)CC(=O)Nc1sc2c(c1C#N)CCN(C(=O)CCc1ccncc1)C2 (racemic) [Example 121, (RS)—N-[3-Cyano-6-(3-pyridin-4-yl-propanoyl)-4,5,6,7-tetrahydro-thieno[2,3-c]pyridin-2-yl]-3-(2-ethoxy-phenyl)-butyramide] | 5.70 to 6.52 |
| ≤ 5.00 | CCOc1ccccc1C(C)CC(=O)Nc1sc2c(c1C#N)CCN(C(=O)Cn1ccnc1C)C2 (racemic) [Example 128, (RS)—N-{3-Cyano-6-[2-(2-methyl-imidazol-1-yl)-ethanoyl]-4,5,6,7-tetrahydro-thieno[2,3-c]pyridin-2-yl}-3-(2-ethoxy-phenyl)-butyramide] | ≥ 6.52 |
| < 4.00 | CCOc1ccccc1CCC(=O)Nc1sc2c(c1C#N)CCN(C(=O)CCOC)C2 [Example 13, N-[3-Cyano-6-(3-methoxy-propanoyl)-4,5,6,7-tetrahydro-thieno[2,3-c]pyridin-2-yl]-3-(2-ethoxy-phenyl)-propionamide] | ≥ 6.52 |
| < 4.00 | CCOc1ccccc1C(C)CC(=O)Nc1sc2c(c1C#N)CCN(C(=O)Cc1cccnc1)C2 (racemic) [Example 67, (RS)—N-[3-Cyano-6-(2-pyridin-3-yl-ethanoyl)-4,5,6,7-tetrahydro-thieno[2,3-c]pyridin-2-yl]-3-(2-ethoxy-phenyl)-butyramide] | ≥ 6.52 |
| ≤ 5.00 | COc1ccccc1C(C)CC(=O)Nc1sc2c(c1C#N)CCN(C(=O)Cn1cc(C)nc1C)C2 (racemic) [Example 144, (RS)—N-{3-Cyano-6-[2-(2,4-dimethyl-imidazol-1-yl)-ethanoyl]-4,5,6,7-tetrahydro-thieno[2,3-c]pyridin-2-yl}-3-(2-methoxy-phenyl)-butyramide] | 5.70 to 6.52 |
| < 4.00 | CCOc1cccc(C(C)CC(=O)Nc2sc3c(c2C#N)CCN(C(=O)Cc2ccncc2)C3)c1 (racemic) [Example 69, (RS)—N-[3-Cyano-6-(2-pyridin-4-yl-ethanoyl)-4,5,6,7-tetrahydro-thieno[2,3-c]pyridin-2-yl]-3-(3-ethoxy-phenyl)-butyramide] | 5.70 to 6.52 |
| < 4.00 | COc1ccccc1C(C)CC(=O)Nc1sc2c(c1C#N)CCN(C(=O)Cc1ccccn1)C2 (racemic) [Example 62, (RS)—N-[3-Cyano-6-(2-pyridin-2-yl-ethanoyl)-4,5,6,7-tetrahydro-thieno[2,3-c]pyridin-2-yl]-3-(2-methoxy-phenyl)-butyramide] | ≥ 6.52 |
| ≤ 4.40 | COc1cccc(CCC(=O)Nc2sc3c(c2C#N)CCN(C(=O)Cn2ccnc2)C3)c1 [Example 55, N-[3-Cyano-6-(2-imidazol-1-yl-ethanoyl)-4,5,6,7-tetrahydro-thieno[2,3-c]pyridin-2-yl]-3-(3-methoxy-phenyl)-propionamide] | 5.70 to 6.52 |
| ≤ 4.40 | CCOc1ccccc1CCC(=O)Nc1sc2c(c1C#N)CCN(C(=O)Cc1ccncc1)C2 [Example 73, N-[3-Cyano-6-(2-pyridin-4-yl-ethanoyl)-4,5,6,7-tetrahydro-thieno[2,3-c]pyridin-2-yl]-3-(2-ethoxy-phenyl)-propionamide] | ≥ 6.52 |
